In paper PMC10761119, “Phosphorylation-state dependent intraneuronal sorting of Aβ differentially impairs autophagy and the endo-lysosomal system” (Autophagy, 2023):

How the values were obtained:
[1] = system: SH-SY5Y cells; test: Immunocytochemistry colocalization of Aβ with LC3 and LAMP2; format: cell-based, human; conditions: Aβ 1 µM, 24 h, n = 6, N = 3
Experimental: Cells were cultured on glass coverslips and treated similarly as mentioned above. After treatment, cells were subsequently washed and fixed with 4% paraformaldehyde in PBS for 15 min. […] Incubation with primary antibodies (respective dilutions in blocking buffer) was performed overnight at 4°C. Next day, coverslips were washed and incubated with respective secondary antibodies (respective dilutions in blocking buffer) for 1 h at RT. Removal of the secondary antibody solution was followed by washes with PBS (thrice) and distilled water (once) and coverslips were mounted on the slides using ImmuMount (ThermoFisher Scientific - Shandon EprediaTM, 9990412). […] Quantification of the number of autophagic compartments (Figure S6B) was done manually using a 10 μm^2 ROI grids, placed in the cytosolic region of the individual cells using the “rule of L” counting method. […] All images were processed and analyzed using Fiji ImageJ software. […] Distance from the plaque core (Figure 1B) was measured using the concentric circles plugin module. Fluorescence intensity of the green channel (Figure S3A-B), and the number of neurons positive for Aβ signals (Figure S3-D) were quantified using the processing module of Keyence software. […] Intensity of green and red channel for a particular ROI was calculated and ratios of the individual values were computed (Figure 6B and S7A). […]

[2] = system: CTSD and CTSE in SH-SY5Y cells; test: CTSD and CTSE activity assay with fluorogenic substrate; format: cell-based, human; conditions: Aβ 1 µM, 24 h, per µg total cellular protein, compared to control cells
Experimental: Cells were seeded in a 96-well plate (12000 cells/well, D1) and treated with different Aβ variants (primary cortical neurons, DIV14–500 nM, 4 h; SH-SY5Y cells, D3–1 μM, 24 h) in neurobasal, FCS-/PS- media. After the treatment, the supernatant was discarded, and cells were washed with PBS once. Cells were lysed by solubilizing the plasma membrane and intracellular membranes by adding 50 μL of 200 μg/mL digitonin in acetate buffer to the wells followed by incubation on ice for 15 min. Additionally, 50 μL of the Omnicathepsin D & E fluorogenic substrate (Enzo Life sciences, BML-P145) in sodium acetate buffer was added to the lysates in the wells for a final concentration of 30 μM of substrate and 10 mM DTT. Plate was incubated for 25 min at RT and the reaction was stopped by addition of 10 µl of ethanol. The relative amount of substrate cleavage in each well was computed using multiplate reader at λEx 380 nm and λEm 460 nm. Values were normalized and represented as fold-change with respect to control cells. Graphs in Figure 7G and S7F represent data from 3 independent experiments (n = 9).

[3] = cited from earlier work

Substance	Accumulation in LC3-positive autophagosomal structures [1]	Activity of lysosomal CTSD and CTSE [2]	Assemblies formed (effect of Ser26 phosphorylation) [3]	Colocalization with LAMP2 [1]
amyloid-β phosphorylated at serine residue 8 [p-Ser8Aβ]	preferential accumulation	no significant effect	–	–
amyloid-β phosphorylated at serine residue 26 [p-Ser26Aβ]	–	increased activity	soluble oligomeric assemblies, rather than fibrillar assemblies	predominant colocalization
